Results as given in patent US4093714A, “9β-D-Arabinofuranosylpurine nucleotides and method of use” (ICN Pharmaceuticals, Inc., priority 1974, dated 1978).
Read-outs that look alike come from different tables or passages of the source.

Experiments:
[1] = eventually to uric acid; cited from earlier work
[2] = test system: Type 1 Herpes Simplex Virus; format: cell-based; settings: cell culture, three days, VR >0.5 definite, <0.5 slight antiviral activity
[3] = test system: Type 2 Herpes Simplex Virus; format: cell-based; settings: cell culture, three days, VR >0.5 definite, <0.5 slight antiviral activity
Vaccinia Virus = format: cell-based; settings: cell culture, three days, VR >0.5 definite, <0.5 slight antiviral activity
[4] = cited from earlier work
[5] = test system: spectrum of virus infections; settings: cited from earlier work
[6] = clinical testing as antiviral agent; cited from earlier work
[7] = test system: Herpes simplex, strain 123; assay: Anti-herpes encephalitis activity in mice, intraperitoneal treatment; settings: for Percent Survivor Number Increase: twice daily for 8 days from 4 hr post virus, 21 days; for Survivor Increase P: probability value (chi square analysis)
equine abortion virus = settings: for Infected, Treated Surv/Total: 21 days observation; for Toxicity Control Surv/Total: twice daily for four days; for Survival Increase p: Fisher's exact test; for Infected, Treated Mean Survival Time: animals dying on or before day 21; for Mean Surv. Increase p: t test

Nc1ncnc2c1ncn2[C@@H]1O[C@H](COP(=O)(O)O)[C@@H](O)[C@@H]1O [9-β-D-arabinofuranosyladenine-5'-phosphate]
metabolic degradation [1]: rapidly degraded in the metabolic system (eventually to uric acid) | virus rating (VR) [2]: 1.3

COP(=O)(O)OC[C@H]1O[C@@H](n2cnc3c(=O)[nH]cnc32)[C@@H](O)[C@@H]1O [9-β-D-Arabinofuranosylhypoxanthine-5'-O-methylphosphate]
virus rating (VR) [3]: 0.0 | virus rating (VR) (Vaccinia Virus): 0.4 | virus rating (VR) [2]: 0.4-0.7

O=c1[nH]c(=O)n([C@H]2C[C@H](O)[C@@H](CO)O2)cc1I [IDU, 5'-iodo-2'-deoxyuridine]
maximum solubility [4]: about 0.1 weight percent | solubility (in words) [4]: extremely low solubility

O=c1[nH]cnc2c1ncn2[C@@H]1O[C@H](CO)[C@@H](OP(=O)(O)O)[C@@H]1O [9-β-D-Arabinofuranosylhypoxanthine-3'-phosphate]
virus rating (VR) [2]: 1.0

O=c1[nH]cnc2c1ncn2[C@@H]1O[C@@H]2COP(=O)(O)O[C@H]2[C@@H]1O [9-β-D-Arabinofuranosylhypoxanthine-3' ,5'-cyclic phosphate]
virus rating (VR) (Vaccinia Virus): 0.7 | virus rating (VR) [2]: 0.7-1.1

Nc1ncnc2c1ncn2[C@@H]1O[C@H](CO)[C@@H](O)[C@@H]1O [9-β-D-Arabinofuranosyladenine, 9-β-D-arabinofuranosyladenine]
reported antiviral effectiveness [5]: effective agent against a spectrum of virus infections | human toxic symptoms [6]: mild nausea, transient leukopenia and central nervous system involvement which causes illusions and hallucinations | Percent Survivor Number Increase ([7]; 62.5 mg/kg/day i.p.): 0% | Survivor Increase P ([7]; 62.5 mg/kg/day i.p.): > 0.03 | Percent Survivor Number Increase ([7]; 125 mg/kg/day i.p.): 30% | Survivor Increase P ([7]; 125 mg/kg/day i.p.): < 0.05 | Percent Survivor Number Increase ([7]; 250 mg/kg/day i.p.): 40% | Survivors/Total (Toxicity Controls) ([7]; 250 mg/kg/day i.p., twice daily for 8 days, 21 days observation): 5/5 | Survivor Increase P ([7]; 250 mg/kg/day i.p.): < 0.05 | effectiveness of ara-A compared with ara-IMP ([7]; i.p., Table II): less effective | Infected, Treated Surv/Total (equine abortion virus; Expt. 1, 125 mg/kg/day i.p.): 8/9 | Toxicity Control Surv/Total (equine abortion virus; Expt. 1, 125 mg/kg/day i.p.): 2/2 | Survival Increase p (equine abortion virus; Expt. 1, 125 mg/kg/day i.p.): < 0.001 | Infected, Treated Mean Survival Time (equine abortion virus; Expt. 1, 125 mg/kg/day i.p.): 13 days | Infected, Treated Surv/Total (equine abortion virus; Expt. 1, 250 mg/kg/day i.p.): 0.8 | Toxicity Control Surv/Total (equine abortion virus; Expt. 1, 250 mg/kg/day i.p.): 2/3 | Infected, Treated Mean Survival Time (equine abortion virus; Expt. 1, 250 mg/kg/day i.p.): 9.2 days | Mean Surv. Increase p (equine abortion virus; Expt. 1, 250 mg/kg/day i.p.): < 0.001 | Infected, Treated Surv/Total (equine abortion virus; Expt. 2, 62.5 mg/kg/day i.p.): 10/10 | Survival Increase p (equine abortion virus; Expt. 2, 62.5 mg/kg/day i.p.): < 0.001 | Infected, Treated Mean Survival Time (equine abortion virus; Expt. 2, 62.5 mg/kg/day i.p.): > 21 days | Mean Surv. Increase p (equine abortion virus; Expt. 2, 62.5 mg/kg/day i.p.): < 0.001 | Infected, Treated Surv/Total (equine abortion virus; Expt. 2, 250 mg/kg/day i.p.): 3/10 | Toxicity Control Surv/Total (equine abortion virus; Expt. 2, 250 mg/kg/day i.p.): 2/3 | Survival Increase p (equine abortion virus; Expt. 2, 250 mg/kg/day i.p.): 0.09 | Infected, Treated Mean Survival Time (equine abortion virus; Expt. 2, 250 mg/kg/day i.p.): 12 days | Mean Surv. Increase p (equine abortion virus; Expt. 2, 250 mg/kg/day i.p.): < 0.001 | solubility (in words) [4]: low solubility

O=c1c2ncn([C@@H]3O[C@H](COP(=O)(O)O)[C@@H](O)[C@@H]3O)c2ncn1O [9-β-D-Arabinofuranosyl-N^1-hydroxyhypoxanthine-5'-phosphate]
virus rating (VR) [3]: 0.0-0.6 | virus rating (VR) (Vaccinia Virus): 0.1-0.4 | virus rating (VR) [2]: 0.2-0.7
